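Protocol summary: plate cells (96-well), add compound at 5 concentrations, incubate 48 h, interpolate endpoints linearly. TGI is the concentration that stops growth completely.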
Columns and labels:
Assay in all cases: NCI tumour cell line growth inhibition, 48 h
U251 CNS = tested on: U251 CNS
NCI-H522 lung = tested on: NCI-H522 lung
IGROV1 ovarian = tested on: IGROV1 ovarian
COLO 205 colon = tested on: COLO 205 colon
EKVX NSCLC = tested on: EKVX NSCLC
SK-MEL-28 melanoma = tested on: SK-MEL-28 melanoma
MALME-3M melanoma = tested on: MALME-3M melanoma
KM20L2 colon = tested on: KM20L2 colon
HT29 colon = tested on: HT29 colon
HCC-2998 colon = tested on: HCC-2998 colon
OVCAR-8 ovarian = tested on: OVCAR-8 ovarian
UACC-62 melanoma = tested on: UACC-62 melanoma
SF-268 CNS = tested on: SF-268 CNS
SNB-19 CNS = tested on: SNB-19 CNS
HOP-92 NSCLC = tested on: HOP-92 NSCLC
SF-295 CNS = tested on: SF-295 CNS
SN12C renal = tested on: SN12C renal
SF-539 CNS = tested on: SF-539 CNS
SNB-75 CNS = tested on: SNB-75 CNS
A549 NSCLC = tested on: A549 NSCLC
HOP-18 NSCLC = tested on: HOP-18 NSCLC
NCI-H23 lung = tested on: NCI-H23 lung
RXF 393 renal = tested on: RXF 393 renal
DLD-1 colon = tested on: DLD-1 colon
SNB-78 CNS = tested on: SNB-78 CNS
OVCAR-3 ovarian = tested on: OVCAR-3 ovarian
SK-OV-3 ovarian = tested on: SK-OV-3 ovarian
M14 melanoma = tested on: M14 melanoma
A498 renal = tested on: A498 renal
ACHN renal = tested on: ACHN renal
CCRF-CEM leukemia = tested on: CCRF-CEM leukemia
K-562 leukemia = tested on: K-562 leukemia
DMS 273 small cell lung = tested on: DMS 273 small cell lung
DMS 114 small cell lung = tested on: DMS 114 small cell lung
TK-10 renal = tested on: TK-10 renal
OVCAR-4 ovarian = tested on: OVCAR-4 ovarian
786-0 renal = tested on: 786-0 renal
SR leukemia = tested on: SR leukemia
UO-31 renal = tested on: UO-31 renal
MOLT-4 leukemia = tested on: MOLT-4 leukemia
OVCAR-5 ovarian = tested on: OVCAR-5 ovarian
CAKI-1 renal = tested on: CAKI-1 renal
HOP-62 NSCLC = tested on: HOP-62 NSCLC
LXFL 529 NSCLC = tested on: LXFL 529 NSCLC
RPMI-8226 leukemia = tested on: RPMI-8226 leukemia
SW-620 colon = tested on: SW-620 colon
NCI-H460 lung = tested on: NCI-H460 lung
M19-MEL melanoma = tested on: M19-MEL melanoma
HCT-116 colon = tested on: HCT-116 colon
UACC-257 melanoma = tested on: UACC-257 melanoma
NCI-H226 lung = tested on: NCI-H226 lung
KM12 colon = tested on: KM12 colon
HL-60(TB) leukemia = tested on: HL-60(TB) leukemia
LOX IMVI melanoma = tested on: LOX IMVI melanoma

Measured: TGI

CC1CC(C)C(C(O)CC2CC(=O)N(c3ccccc3)C(=O)C2)C(O)C1 (centres undefined)
> 100 µM: all assays above

Reference: PubChem BioAssay (NCI)
